Columns and labels:
[1] = system: Huh7 cells; experiment: HCC xenograft model (Huh7 cells in Balb/c nude mice); assay type: in vivo, mouse; conditions: 2 grams/liter in drinking water, 3 weeks
Description: (§1) Balb/c Nude mice, 5-6 weeks old, were inoculated with 1×10^7 Huh7 cells in 0.2 ml volume of Matrigel/DMEM mix. Since not every mouse developed a tumor after the inoculation of HCC cells, only those with visible tumors (about 8 weeks after inoculation) were used for subsequent experiment. The tumor-bearing mice were randomly divided to the control and the treatment group. (n=3), respectively. Mice in the treatment group had free access to drinking water containing DBZIM (2 grams/liter) only, while mice in the control group had free access to Water only. The compound treatment lasted for 3 weeks. The tumor size was measured weekly, and the tumor volume was calculated using the formula: 0.52×width^2×length.
as §1, with “group” for “group.”, “compound 9 (IBN-9) at 0.6 g/l or 1.5 g/l” for “DBZIM (2 grams/liter)”, “water” for “Water”

[2] = system: AIF; experiment: AIF translocation (Western blot and HCS); assay type: cell-based, human; conditions: 24 hr
Description: FIG. 26. DBZIM induced cytoplasm-to-nucleus translocation of AIF. (A). DBZIM translocated AIF from cytoplasm to nucleus. HepG2 cells were treated by DBZIM for 24 hr. Cytoplasmic and nuclear proteins were fractionated using a kit from Pierce. 15 μg of proteins were resolved in 4-12% gradient PAGE-SDS gel. The target proteins were recognized by the antibody of AIF, and visualized by the ECL method. The membrane was stripped and re-probed for α-tubulin as the loading control for cytoplasmic fraction and Tata binding protein TBP for nuclear protein. (B). HLE cells were grown in 96-well plate and treated by DBZIM for 24 hr. The cells were then fixed and stained by antibody of AIF. The images were acquired and analyzed using ArrayScan VTI HCS reader (Thermal Scientific, PA, USA) and Target Activation BioApplication software. The arrows indicate the cytoplasmic and the nuclear location of the AIF staining in the control and the DBZIM, respectively. (C). Quantification of AIF staining in different subcellular compartments. […]
HLE cells cultured in 96-well plate were treated with DBZIM for 24 hr before staining and imaging. […] The cells were imaged and analyzed on ArrayScan VTI HCS reader (Thermal Scientific, PA, USA). Fluorescence intensity in the cytoplasmic and nuclear area was plotted for indication of cytoplasm to nucleus translocation. […]

[3] = system: cytochrome C in HLE cells; experiment: Western blot of cytochrome c release from mitochondria to cytosol; assay type: cell-based, human; conditions: 1.5 mM, 24 hr
Description: FIG. 23. (A). […] HLE cells were grown in a T75 flask and treated with DBZIM for 24 hr. The cells were then lysed and cytoplasmic protein was collected for assaying caspase 8, 9 and 3 using kits from Biovision. The data was normalized against the vehicle control. (B). […] HLE cells were treated by DBZIM of 1.5 mM for 24 hr. Cytosolic and mitochondria protein fractions were collected using a kit from Biovision. 15 μg of each protein was resolved in 4-12% gradient PAGE-SDS gel. The target proteins were recognized by antibody of cytochrome C, and visualized by the ECL method. […]
Protein extracts were prepared by lysing cell pellet in RIPA buffer (Pierce, Ill., USA) for total protein extract, or in NE-PER reagent from Pierce (Pierce, Ill., USA) for nuclear and cytoplasmic fractions, or in a Kit from BioVision (CA, USA) for mitochondria and cytosol fractions. Protein content was quantified using BCA Kit (Pierce, Ill., USA). […] The membrane was then probed with primary antibodies against Bcl-XL, Bak, Bcl-2α, Bax (Lab Vision Corp., CA, USA), survivin, xIAP, cIAP (R&D systems Inc., MN, USA), c-Jun, c-Fos, JunB, JunD, Fra-1, Fra-2 (Santa Cruz Biotechnology, CA, USA) respectively, and detected by horseradish peroxidase-conjugated secondary antibody (Santa Cruz Biotechnology, CA, USA). Protein bands were recorded on X-ray film by reacting with ECL chemiluminescence reagents (Amersham Biosciences, NJ, USA). […]

[4] = system: phospho-Ser473-Akt; experiment: Western blot of phosphorylated Akt; assay type: cell-based, human; conditions: H1299, MCF-7, AGS and MKN28, IC50 concentration, 24 h to 72 h
Excerpt: FIG. 32. DBZIM inhibits phosphorylation of Akt. […] Time course inhibition of phosphorylated-AKT was shown by Western blot. β-actin was used as an internal loading control.
The Akt (also known as protein kinase B) kinase signaling pathway is activated in a variety of carcinomas of lung, breast, colon, and pancreatic and other tumor types through over-expressing the Akt protein itself and/or increasing phosphorylation of Akt. This study provided evidence that DBZIM is particularly efficacious in inducing apoptosis in AGS, H1299 and MCF-7 cells through a mechanism involving the reduction in the levels of the, phospho-AKT.

[5] = system: AGS; experiment: Proliferation assay (MTS), gastric cancer cell line; assay type: cell-based; conditions: Homo sapiens, 72 h, day 3
Description: Proliferation of Glioma cell lines: U87 MG and C6 under the treatment of DBZIM was examined using 3-(4,5-dimethylthiazol-2-yl)-5-(3-carboxymethoxyphenyl)-2-(4-sulfophenyl)-2H-tetrazolium (MTS) based proliferation assay kit (Promega, Wis., USA). MTS reagent was added to the control and treated cells (after 48 hr) directly and the absorbance signal was read at 490 nm using a Tecan Safire II plate reader.
The IC50 value (determined at day 3) was 50 μM for H1299 (lung cancer); 50 μM for MCF-7 (breast cancer), and 40 μM for AGS gastric cancer at day 3 (Table 3).

[6] = culture medium for human esophageal cancer cells (Hou et al. 2005); cited from earlier work

| Compound | decrease of body weight [1] | reduction of tumor volume [1] | AIF translocation [2] | release of cytochrome C from the mitochondria to the cytosol [3] | active form of Akt (phospho-Ser473-Akt) [4] | IC50 [5] | half life in culture medium [6] |
| --- | --- | --- | --- | --- | --- | --- | --- |
| [Br-].c1ccc(Cn2cc[n+](Cc3ccccc3)c2)cc1 [DBZIM, 1,3-bisbenzylimidazolium bromide] | 17% | 40% | induce the translocation of AIF to the nucleus | minimal release | appreciable down-regulation | 40 µM | – |
| (−)-Epigallocatechin gallate [EGCG, reference compound] | – | – | – | – | – | – | 30 min |

— patent US9072729B2, “Method for treating fibrosis and cancer with imidazolium and imidazolinium compounds” (Agency for Science, Technology and Research, priority 2008, dated 2015)
